# Assay results published in patent publication US20230357168A1, “CARBOBICYCLIC NUCLEOSIDES FOR TREATMENT OF VIRAL INFECTION” (The Chinese University of Hong Kong, priority 2022, published 2023).
# Tested on: SARS-CoV-2 viral strains (including the original Wuhan strain and Delta and Omicron variants)
# Assay: Replication of SARS-CoV-2 viral strains in A549-ACE2 cell model (FIG. 2)
# Assay type: cell-based
# Details: done in triplicate
compound,measurement,value
"O=c1[nH]/c(=N\O)ccn1[C@@H]1C2=CCC[C@@H](O)[C@@H]2[C@@H](O)[C@H]1O [Compound 48, 4-(hydroxyimino)-1-((1R,2S,3R,3aR,4R)-2,3,4-trihydroxy-2,3,3a,4,5,6-hexahydro-1H-inden-1-yl)-3,4-dihydropyrimidin-2(1H)-one]",replication of different SARS-CoV-2 viral strains,inhibits the replication
